# According to US5593678A, “Protection of teleost fish” (University of Georgia Research Foundation, priority 1994, dated 1997):
# Where two headings read alike, the source gives them in different places.
# What was measured:
# [1] = tested on: NCC (lysis of IM-9 target cells); settings: for effect of removal of inhibitor on NCC activation (words): 90 minutes treatment, washed, E:T 40:1; for enhancement of destruction of IM-9 target cells (fold): over control, lower E:T ratios
# Method: FIG. 4. Individual and combined effects of phosphatase inhibitors on NCC cytotoxicity, NCC (7×10^5 cells) were incubated with either media (.diamond.), vanadate (Δ) (5 mM). NaF (.smallcircle.) (20 mM), or both vanadate and NaF (.quadrature.) for the indicated time periods before addition to labeled IM-9 target cells.
# FIG. 5. Effects of removal of Na3 VO4 on NCC activation. NCC were harvested, incubated for three hours, washed, counted and added to duplicate tubes containing either media alone or media containing 2.5, 5 and 10 mM vanadate. Following a 90 minutes incubation time, the cells were either washed and resuspended in media (closed circles) or added directly (open circles) to wells containing ^51 chromium labeled IM-9 target cells (E:T ratio 40:1).
# FIG. 6. Effects of removal of NaF on NCC activation. NCC were harvested, incubated for three hours in media, washed, counted and added to duplicate tubes containing media alone or in the presence of 5, 10 and 20 mM NaF. Following a 90 minutes treatment time, NCC were either washed (closed circles) or added directly (open circles) to wells containing labeled IM-9 target cells (E:t ratio 40:1).
# FIG. 7. Effects of Na3 VO4 on NCC with different levels of cytotoxicity. NCC were harvested from anterior kidneys of fish from three different sources. The cells were incubated in media for three hours, washed, counted and added to test tubes containing either media alone or media with 2.5, 5 and 10 mM vanadate. Following a two hours incubation time, the effectors were added to wells containing labeled IM-9 cells at a 40:1 E:T ratio.
# FIG. 8. Effects of NaF on NCC with different levels of cytotoxicity. NCC were harvested from anterior kidneys of fish from three different sources. The cells were incubated in media for three hours, washed, counted and added to media or media with 5, 10 and 20 mM NaF. Following a two-hour incubation, NCC were added to wells containing ^51 chromium labeled IM-9 target cells for a final E:T ratio of 40:1.
# (§1) A ^51 Cr release assay was used to determine cytotoxicity. Target cells at 1-2×10^6 cells/ml were labeled with 100 μCi of sodium chromate (Amersham, Arlington Heights, Ill.). NCC effector cells were treated as previously described [Evans et al. (1988) supra], centrifuged (500 g), and resuspended in media and added at different E:T ratios to the labeled target cells in round-bottomed 96-well microtiter plates. This mixture was incubated (25° C.) for 4-6 hours and 100 μl of each supernatant was removed to determine radioactivity (Beckman Biogamma II Counter; Beckman Instruments, Irvine, Calif.). The results are expressed as either percentage specific release (SR)=[(test release--spontaneous release)/(total release--spontaneous release)]×100; percent inhibition=[(percentage control SR--percentage test SR)/percentage control SR]×100; and percentage increase=(percentage test SR--percentage control SR)/percentage control SR.
# NCC were obtained as previously described [Graves et al. (1984) supra]; Evans et al. (1984) supra]. […] NCC were then washed and resuspended at 20×10^6 cells/ml, and 35 μl aliquots were added to test tubes containing 315 μl media only (media control) or media containing the indicated treatments. After 2 hr incubation, the cells were mixed with ^51 Cr-labeled IM-9 target cells and incubated for 4-6 hours ([…]). Supernatants were harvested and cytotoxicity levels were calculated as previously described.
# Membrane phosphorylation is maintained through a delicate equilibrium between cellular kinase and phosphatase activities.
# In further studies, NCC were treated with different concentrations of protein phosphatase inhibitors for two hours and labeled IM-9 target cells were added for a four-hour microcytotoxicity assay (Table 8).
# [2] = tested on: NCC from stressed fish (lysis of IM-9 target cells); settings: 100:1, control 0.9
# Method: as §1
# A common observation in fish exposed to stress, e.g., toxicants, drastic temperature changes, handling, etc., is the temporary loss of NCC activity.
# [3] = tested on: NCC (lysis of IM-9 target cells); settings: 0.05 mM (50 μM), immersion, 10, 24, 48 hours
# Method: FIG. 9. In vivo NCC responses to vanadate treatment. Catfish were acclimated in 10 gal tanks for 24 hours prior to treatment. Vanadate was added directly to the tanks and cytotoxicity assays of NCC from treated and control fish were conducted at 10, 24 and 48 hours post-treatment.
# Fish were treated by immersion in 10 gal (static flow) tanks containing the appropriate inhibitor concentrations in 15 liters of dechlorinated water (19°-20° C.). All fish were acclimated to tank conditions 24 hours prior to treatment. Each tank housed twenty fish (approximately 4-5 inches in length). At 24 hour intervals 50% of the water was changed.
# To determine the ability of vanadate to act in vivo to activate NCC responses, fish were treated by immersion with 0.050 mM vanadate and cytotoxicity was determined at 10, 24 and 48 hours post-treatment.
# [4] = tested on: Edwardsiella ictaluri
# Method: FIG. 11. Effects of treatment of catfish with vanadate prior to infection with E. ictaluri. In two different experiments (A and B), catfish were treated with vanadate (indicated concentrations) 48 hours prior to infection with Edwardsiella. Percent cumulative mortality for each treatment group is given. Numbers of fish were 12-15/group/experiment.
# Thus, catfish were treated (by immersion) with 0.05 mM vanadate for 48 hours prior to infection with Edwardsiella ictaluri.
# [5] = tested on: NCC in anterior kidney tissue; settings: for % NCC in anterior kidney tissue / Total cells/ml: 50 μM
# [6] = tested on: Edwardsiella ictaluri; settings: approximately 10 μM to approximately 25 μM, 18-24 hours; FIG. 10; listed as sodium orthovanadate
# [7] = tested on: Na^+ /K^+ ATPase; settings: cited from earlier work
# [8] = tested on: protein phosphatase; settings: cited from earlier work
# [9] = tested on: human prostate gland phosphotyrosyl protein phosphatase; settings: cited from earlier work
# [10] = tested on: calcineurin; settings: cited from earlier work
# [11] = tested on: diabetic animals; settings: cited from earlier work
# [12] = tested on: cellular carbohydrate biosynthetic pathways; settings: cited from earlier work
# [13] = tested on: muscles and liver; cardiac performance; settings: rats; cited from earlier work
substance,measurement,setting,value
sodium orthovanadate,Percent Specific Release,"[1]; 5 mM, E:T 10, media 39",63%
same,Percent Specific Release,"[1]; 5 mM, E:T 25, media 4",29%
same,Percent Specific Release,"[1]; 5 mM, E:T 50, media 21",46%
same,Percent Specific Release,"[1]; 10 mM, E:T 10, media 39",62%
same,Percent Specific Release,"[1]; 10 mM, E:T 25, media 4",40%
same,Percent Specific Release,"[1]; 10 mM, E:T 50, media 21",49%
same,effect of removal of inhibitor on NCC activation (words),[1],slightly reduced levels of NCC cytotoxicity
same,effect of removal of inhibitor on NCC activation (words),[1]; listed as sodium vanadate,largely retained
same,enhancement of destruction of IM-9 target cells (fold),[1]; listed as Sodium vanadate,approximately six- to eightfold
same,enhancement of destruction of IM-9 target cells (fold),[1]; listed as sodium vanadate,as much as six- to eightfold
same,Percent Specific Release (stressed fish),[2]; Na3 VO4 5.0 mM,9.9%
same,Percent Specific Release (stressed fish),[2]; Na3 VO4 10.0 mM,13.1%
same,in vivo NCC cytotoxicity (words),[3]; listed as orthovanadate,significantly increased cytotoxicity 48 hours post-treatment
same,in vivo NCC cytotoxicity (words),[3]; listed as vanadate,large increases in cytotoxicity by 48 hours
same,reduction in mortality,"[4]; 0.05 mM pretreatment 48 hours, FIG. 11A",27%
same,reduced mortality,"[4]; 0.05 mM pretreatment, 13-14 days post infection, FIG. 11B",54%
same,mortality / resistance after pretreatment (words),"[4]; 0.05 mM, 48 hours prior to infection, listed as sodium orthovanadate",produced resistance in catfish against the Edwardsiella pathogen
same,survival at 28 days post-infection,[4]; experiment B,all treated catfish were still alive
same,% NCC in anterior kidney tissue,"[5]; 3 hours post-treatment, control 60",51%
same,Total cells/ml,"[5]; 3 hours, control 3.2",3.1 cells/ml × 10^0
same,Total cells/ml,"[5]; 24 hours, control 2.6",2.8 cells/ml × 10^0
same,% NCC in anterior kidney tissue,"[5]; 24 hours, control 55",60%
same,Total cells/ml,"[5]; 48 hours, control 2.1",3.5 cells/ml × 10^0
same,% NCC in anterior kidney tissue,"[5]; 48 hours, control 52",66%
same,Total cells/ml,"[5]; 72 hours, control 2.3",3.1 cells/ml × 10^0
same,% NCC in anterior kidney tissue,"[5]; 72 hours, control 70",72%
same,Total cells/ml,"[5]; 96 hours, control 3.6",1.6 cells/ml × 10^0
same,% NCC in anterior kidney tissue,"[5]; 96 hours, control 61",78%
same,effect on total number of cells and percentage NCC in anterior kidney tissue,[5]; in vivo,not due to fluctuations in the total number of cells nor in the percentage of NCC
same,mortality of infected catfish (words),[6],mortality was reduced
same,Na^+ /K^+ ATPase inhibition,[7],significantly inhibited
same,protein phosphatase activity,[8],vanadate but not fluoride inhibited protein phosphatase activity
same,human prostate gland phosphotyrosyl protein phosphatase,[9],"fluoride, but not vanadate inhibited human prostate gland phosphotyrosyl protein phosphatase"
same,calcineurin-mediated dephosphorylation,[10],"fluoride, but not vanadate inhibited"
same,blood glucose levels in diabetic animals,"[11]; oral, 15 μM in drinking water",normalization of blood glucose levels in diabetic animals
same,time to reversal of effects after suspension of treatment,[11]; rats,two
same,glucose oxidation,[12],stimulation of glucose oxidation
same,glycogen synthetase activity,[12],stimulation of glycogen synthetase activity
same,insulin activity,[12],prolongation of insulin activity
same,insulin binding,[12],augmentation of insulin binding
same,cardiac performance,[13],improved cardiac performance
same,glucose transport into muscles and liver,[13],stimulated glucose transport into muscles and liver
